The text below walks through data of patent US11254680B2, “Cyclic iminopyrimidine derivatives as kinase inhibitors” (ABM Therapeutics Corporation, priority 2017, dated 2022).

The subject of one data set is P-glycoprotein (MDR1). As to the kind of experiment: MDCK-MDR1 Permeability Assay. It is filed as in vitro ADME, canine. As to conditions: dog; for efflux ratio at 120 min: MDCK-MDR1, Papp(B-A)/Papp(A-B); for Papp A→B at 120 min: MDCK-MDR1, apical to basolateral; for Papp A→B at 120 min / Papp B→A at 120 min: 1-30 μM; for Papp B→A at 120 min: MDCK-MDR1, basolateral to apical. The protocol:
MDCK-MDR1 cells originate from transfection of Madin Darby canine kidney (MDCK) cells with the MDR1 gene, the gene encoding for the efflux protein, P-glycoprotein. This cell line is ideal for identifying substrates of P-gp, with or without an inhibitor. The cells are seeded on a Multiscreen™ plate to form a confluent monolayer over 4 days prior to the experiment. On day 4, the test compound (1-30 μM concentration) is added to the apical side of the membrane and the transport of the compound across the monolayer is monitored over a 120 minutes time period. To study drug efflux, it is also necessary to investigate transport of the compound from the basolateral compartment to the apical compartment and calculate an efflux ratio.
The permeability coefficient (Papp) is calculated from the following equation: Papp=[(dQ/dt)/C0×A] where dQ/dt is the rate of permeation of the drug across the cells, C0 is the donor compartment concentration at time zero and A is the area of the cell monolayer.
An efflux ratio is calculated from the mean apical to basolateral (A-B) Papp data and basolateral to apical (B-A) Papp data. Efflux Ratio=Papp(B−A)/Papp(A−B)

For the next data set, the system named is A375 melanoma cells. As to the kind of experiment: Antiproliferation assay in A375 cell line by CellTiter Glo. It is filed as cell-based. As to conditions: Homo sapiens, A-375, 72 hours or 144 hours. As for the experimental part:
In vitro anti-proliferation study of test compounds in A375 cell line by CellTiter Glo. The cells were routinely maintained as a monolayer culture in corresponding culture medium, at 37° C. with 5% CO2 in air.
Harvest the exponential growth cells by trypsin-EDTA digestion. Re-suspend the cell pellet in fresh culture medium, and adjust the concentration to needed (the cell density per well was listed in following form). The cell viability is over 98% by Trypan blue staining. Inoculate cells into 96 wells plates according to the plate map (90 μL/well). Incubate the plates at 37° C. and 5% CO2 overnight. The next day, prepare the 10×compound containing medium according to the plate map. Transfer 10 μL of 10×compound containing medium into each well of the assay plates (the final DMSO concentration is 0.5%). Gently mix the medium and incubate at 37° C. and 5% CO2 for another 72 hours or 144 hours.
Prepare the reagent according to the manufacture's instruction. Add 50 μL CellTiter-Glo Reagent in each well. Mix contents for 2 minutes on an orbital shaker to induce cell lysis. Allow the plate to incubate at room temperature for 10 minutes to stabilize luminescent signal. Transfer 100 μL of reaction contents of each well from the clear plates into white walled/white opaque 96-well plates. Record the luminescence on Envision.
Using the luminescence measurements [time zero (T0), control growth (C), and test growth in the presence of drug at the six concentration levels (Ti)], the percentage growth is calculated at each of the drug concentrations levels.
Percentage growth inhibition (GI) is calculated as: GI (%)═[(Ti-T0)/(C-T0)]×100 for concentrations for which Ti>=T0, and GI (%)═[(Ti-T0)/T0]×100 for concentrations for which Ti<T0. Data were analyzed using the XLFit (Excel) tool, fitting to a 4-parameter equation to generate concentration response curves. Concentration of compound that inhibits 50% of control cell growth (GI50) was back-interpolated when y=50% of net growth of DMSO treated control wells using nonlinear regression with the equation: f(x) 205 [fit=(A+((B−A)/(1+((C/x)^))))], where A is the minimum response (Ymin), B is the maximum response (Ymax), C is the inflection point of the curve (Re GI50) and D is the Hill coefficient. Growth inhibition of 50% (GI50) was calculated at the 50% Growth inhibition on the curve. Index values were the sum of Inhibition rate (IR) at each tested compound concentration.
For orientation: ATP-based viability assays read luminescence as a measure of living cells.

The nature of data set [1]: Caco-2 Permeability Assay. It is filed as in vitro ADME. As to conditions: human; for efflux ratio at 120 min: Caco-2; for Papp A→B at 120 min: Caco-2, apical to basolateral; for Papp A→B at 120 min / Papp B→A at 120 min: 1-30 μM; for Papp B→A at 120 min: Caco-2, basolateral to apical. The protocol: Caco-2 cells are widely used as an in vitro assay to measure the permeability of a drug compound. The Caco-2 cell line is derived from a human colorectal carcinoma, and when cultured, the cells spontaneously differentiate into monolayers of polarized enterocytes. Caco-2 cells express P-glycoprotein and breast cancer resistance protein, two of the most relevant cell membrane active transporters that affect drug compound's permeability into cells and blood brain barrier.
The cells are seeded on Millipore Millicell plates and form a confluent monolayer over 20 days prior to the experiment. On day 20, the test compound (1-30 μM concentration) is added to the apical side of the membrane and the transport of the compound across the monolayer is monitored over a 120 minutes time period. To study drug efflux, it is also necessary to investigate transport of the compound from the basolateral compartment to the apical compartment.
The permeability coefficient (Papp) is calculated from the following equation: Papp=[(dQ/dt)/C0×A] where dQ/dt is the rate of permeation of the drug across the cells, C0 is the donor compartment concentration at time zero and A is the area of the cell monolayer. C0 is obtained from analysis of the dosing solution at the start experiment.

Another data set deals with HT-29 colon cancer cells. Briefly: Antiproliferation assay in HT-29 cells by CellTiter Glo. It is filed as cell-based. Conditions: Homo sapiens, 72 hours or 144 hours.

As usually defined, the efflux ratio is a quotient of directional permeabilities that is used to spot active efflux. As a reminder, the Papp A→B is how fast a substance crosses the layer from the apical side. Lower therefore signals slow passage. Usually Papp B→A stands for the apparent permeability from the basolateral to the apical side of a cell layer. One may read the GI50 as the concentration giving 50% growth inhibition.

The structures appear in SMILES notation.

Consider `CCCS(=O)(=O)Nc1cccc(Oc2ccc3c(c2)C2=NCCN2C=N3)c1[N+](=O)[O-]` [Compound 12, N-(3-((2,3-Dihydroimidazo[1,2-c]quinazolin-9-yl)oxy)-2-nitrophenyl)propane-1-sulfonamide], for which, in the data set on P-glycoprotein (MDR1), the efflux ratio at 120 min is 4.3, the Papp A→B at 120 min was found to be 6.6 ×10⁻⁶ cm/s and the Papp B→A at 120 min is 28.4 ×10⁻⁶ cm/s. In the data set with A375 melanoma cells, this compound had a GI50 below 100 nM.
The like results for `CCCS(=O)(=O)Nc1c(F)ccc(Oc2ccc3c(c2)C2=NCCN2C=N3)c1C#N` [Compound 5, N-(2-Cyano-3-((2,3-dihydroimidazo[1,2-c]quinazolin-9-yl)oxy)-6-fluorophenyl)propane-1-sulfonamide] were, in that order, 1.82, 1.21 ×10⁻⁶ cm/s, 2.19 ×10⁻⁶ cm/s and 100 to 1000 nM.
`N#Cc1c(NS(=O)(=O)c2ccccc2F)cccc1Oc1ccc2c(c1)C1=NCCN1C=N2` [Compound 14, N-(2-Cyano-3-((2,3-dihydroimidazo[1,2-c]quinazolin-9-yl)oxy)phenyl)-2-fluorobenzenesulfonamide]: in the data set on P-glycoprotein (MDR1), the efflux ratio at 120 min was found to be 2.73, the Papp A→B at 120 min came to 3.03 ×10⁻⁶ cm/s and the Papp B→A at 120 min is 8.29 ×10⁻⁶ cm/s. Moreover, in data set [1], the efflux ratio at 120 min stood at 2.77, the apparent permeability from apical to basolateral (Papp A→B) at 120 min was 6.37 ×10⁻⁶ cm/s and the Papp B→A at 120 min amounted to 17.7 ×10⁻⁶ cm/s. In the data set on A375 melanoma cells, this compound registered a GI50 below 100 nM.
On to `CCCS(=O)(=O)Nc1cccc(Oc2ccc3c(c2)C2=NCCN2C=N3)c1C(F)(F)F` [Compound 11, N-(3-((2,3-Dihydroimidazo[1,2-c]quinazolin-9-yl)oxy)-2-(trifluoromethyl)phenyl)propane-1-sulfonamide], for which, in the data set with P-glycoprotein (MDR1), the efflux ratio at 120 min amounted to 1.22, the Papp A→B at 120 min was found to be 34.6 ×10⁻⁶ cm/s and the Papp B→A at 120 min is 42.3 ×10⁻⁶ cm/s. In the data set on A375 melanoma cells, this compound had a GI50 of 100 to 1000 nM.
The like results for `CCCS(=O)(=O)Nc1ccc(F)c(Oc2ccc3c(c2)C2=NCCCN2C=N3)c1C#N` [Compound 17, N-(2-cyano-3-((3,4-dihydro-2H-pyrimido[1,2-c]quinazolin-10-yl)oxy)-4-fluorophenyl)propane-1-sulfonamide] were, in that order, 13.2, 0.7 ×10⁻⁶ cm/s, 9.28 ×10⁻⁶ cm/s and below 100 nM.
On the same counts, the results for `CCCS(=O)(=O)Nc1cccc(Oc2ccc3c(c2)C2=NCCN2C=N3)c1F` [Compound 9, N-(3-((2,3-Dihydroimidazo[1,2-c]quinazolin-9-yl)oxy)-2-fluorophenyl)propane-1-sulfonamide] are 2.47, 17.6 ×10⁻⁶ cm/s, 43.4 ×10⁻⁶ cm/s and 100 to 1000 nM.
The like results for `O=S(=O)(Nc1cccc(Oc2ccc3c(c2)C2=NCCN2C=N3)c1Cl)N1CC[C@@H](F)C1` [Compound 46, (R)—N-(2-Chloro-3-((2,3-dihydroimidazo[1,2-c]quinazolin-9-yl)oxy)phenyl)-3-fluoropyrrolidine-1-sulfonamide] were, in that order, 2.79, 20.8 ×10⁻⁶ cm/s, 57.9 ×10⁻⁶ cm/s and below 100 nM.
Take `CCCS(=O)(=O)Nc1nccc(Oc2ccc3c(c2)C2=NCCCN2C=N3)c1[N+](=O)[O-]` [Compound 23, N-(4-((3,4-Dihydro-2H-pyrimido[1,2-c]quinazolin-10-yl)oxy)-3-nitropyridin-2-yl)propane-1-sulfonamide]: the GI50 in the data set on A375 melanoma cells and in the data set on HT-29 colon cancer cells was above 1000 nM in each case.
Consider `CCCS(=O)(=O)Nc1nccc(Oc2ccc3c(c2)C2=NCCCN2C=N3)c1Cl` [Compound 26, N-(3-Chloro-4-((3,4-dihydro-2H-pyrimido[1,2-c]quinazolin-10-yl)oxy)pyridin-2-yl)propane-1-sulfonamide], for which, in the data set on P-glycoprotein (MDR1), the efflux ratio at 120 min was determined as 4.98, the apical-to-basolateral permeability (Papp A→B) at 120 min was found to be 3.95 ×10⁻⁶ cm/s and the Papp B→A at 120 min is 19.6 ×10⁻⁶ cm/s. This compound also showed a GI50 in the data set with A375 melanoma cells below 100 nM. In addition, in the data set with HT-29 colon cancer cells, the GI50 is below 100 nM.
With `N#Cc1c(NS(=O)(=O)c2cccs2)cccc1Oc1ccc2c(c1)C1=NCCN1C=N2` [Compound 15, N-(2-Cyano-3-((2,3-dihydroimidazo[1,2-c]quinazolin-9-yl)oxy)phenyl)thiophene-2-sulfonamide], in the data set on P-glycoprotein (MDR1), the efflux ratio at 120 min stood at 1.73, the Papp A→B at 120 min amounted to 3.1 ×10⁻⁶ cm/s and the Papp B→A at 120 min was found to be 5.36 ×10⁻⁶ cm/s. Further, in data set [1], the efflux ratio at 120 min amounted to 2.94, the Papp A→B at 120 min came out at 5.08 ×10⁻⁶ cm/s and the Papp B→A at 120 min was found to be 14.9 ×10⁻⁶ cm/s. In addition, the GI50 with A375 melanoma cells is 100 to 1000 nM.
With `CCCS(=O)(=O)Nc1cccc(Oc2ccc3c(c2)C2=NCCCN2C=N3)c1C#N` [Compound 16, N-(2-cyano-3-((3,4-dihydro-2H-pyrimido[1,2-c]quinazolin-10-yl)oxy)phenyl)propane-1-sulfonamide], in the data set with P-glycoprotein (MDR1), the efflux ratio at 120 min is 8.79, the apical-to-basolateral permeability (Papp A→B) at 120 min was 1.01 ×10⁻⁶ cm/s and the Papp B→A at 120 min was determined as 8.89 ×10⁻⁶ cm/s. For the same compound, the GI50 with A375 melanoma cells is below 100 nM. This compound also yielded a GI50 in the data set on HT-29 colon cancer cells below 100 nM.
On to `CCCS(=O)(=O)N(C)c1cccc(Oc2ccc3c(c2)C2=NCCN2C=N3)c1C#N` [Compound 2, N-(2-Cyano-3-((2,3-dihydroimidazo[1,2-c]quinazolin-9-yl)oxy)phenyl)-N-methylpropane-1-sulfonamide], for which, in the data set on P-glycoprotein (MDR1), the efflux ratio at 120 min stood at 2.63, the Papp A→B at 120 min amounted to 19 ×10⁻⁶ cm/s and the Papp B→A at 120 min worked out at 50 ×10⁻⁶ cm/s. Besides, in the data set with A375 melanoma cells, the 50% growth inhibitory concentration (GI50) was above 1000 nM.
For the compound `CCCS(=O)(=O)Nc1ccc(F)c(Oc2ccc3c(c2)C2=NCCN2C=N3)c1C#N` [Compound 3, N-(2-Cyano-3-((2,3-dihydroimidazo[1,2-c]quinazolin-9-yl)oxy)-4-fluorophenyl)propane-1-sulfonamide], in the data set with P-glycoprotein (MDR1), the efflux ratio at 120 min came to 9.85, the Papp A→B at 120 min stood at 2.15 ×10⁻⁶ cm/s and the Papp B→A at 120 min amounted to 21.2 ×10⁻⁶ cm/s. Moreover, in data set [1], the efflux ratio at 120 min was 1.48, the Papp A→B at 120 min was found to be 9.24 ×10⁻⁶ cm/s and the Papp B→A at 120 min came out at 13.7 ×10⁻⁶ cm/s. The same compound showed a GI50 with A375 melanoma cells below 100 nM.
Consider `CCCS(=O)(=O)Nc1cccc(Oc2ccc3c(c2)C2=NCCCN2C=N3)c1F` [Compound 18, N-(3-((3,4-Dihydro-2H-pyrimido[1,2-c]quinazolin-10-yl)oxy)-2-fluorophenyl)propane-1-sulfonamide], for which, in data set [1], the efflux ratio at 120 min was 2.2, the Papp A→B at 120 min turned out to be 11.3 ×10⁻⁶ cm/s and the Papp B→A at 120 min was 24.9 ×10⁻⁶ cm/s. The same compound came in with a GI50 in the data set with A375 melanoma cells below 100 nM. The compound further displayed a GI50 in the data set with HT-29 colon cancer cells of 100 to 1000 nM.
